Assays:
[1] = tested on: TNF-induced NFκB reporter gene activity in L929sA cells; assay: p(NFκB)3-50luc reporter gene assay with TNF (NFκB transrepression); assay type: cell-based; conditions: TNF 2,500 IU/ml; for inhibition at 0.01 µM: L929sA, 10 nM compound
Protocol: In order to compare transactivation and transrepression potencies of the different synthesized GSK866 analogs, we performed GRE- and NFκB-luciferase-dependent reporter gene studies in stable transfected cell lines, as previously described ([3], [8]). HaCat cells expressing p(GRE)2 50-Luc and L929sA cells expressing p(GRE)250-Luc or p(NFκB)350-Luc were cultured in DMEM medium with 1% L-glutamine, supplemented with 10% feral bovine serum (FBS), 100 µg/ml streptomycin, and 100 IU/mL penicillin in a humidified 5% CO2 atmosphere. Cells were passaged every 2 days at a dilution of 1:6. Reporter gene cells were plated at a density of 0.5 × 10^5 cells/well in 24 well plates and grown overnight. p(GRE)250-Luc-dependent reporter gene cells were treated with solvent (DMSO) or compound (100 fM, 1 nM, 10 nM, 100 nM, and 1 µM) for 6 h, whereas in case of p(NFκB)350-Luc, TNF (2,500 IU/mL) was added 2 h following compound treatment. After incubation with the compounds, medium was removed and cells were washed twice with PBS followed by adding 100 µl of 1× lysis buffer (0.2 M K2HPO4, 0.2 M KH2PO4, Triton X-100, pH 7.6). 25 µl of lysate was assayed for luciferase activity by adding 50 µl of luciferase assay substrate (1 mM luciferin or luciferin salt, 3 mM ATP, and 15 mM MgSO4 in 30 mM HEPES buffer, pH 7.8) followed by 10 s mixing and measuring 1 s bioluminescence using an Envision multilabel reader (Perkin Elmer).
Figure 3 Selective glucocorticoid receptor agonist GSK866 analogs UAMC-1217, UAMC-1218 but not UAMC-1158 and UAMC-1159 elicit selective glucocorticoid receptor-transactivation and NFκB-transrepression properties. Glucocorticoid response element (GRE)- and NFκB-luciferase-dependent reporter gene assays were performed in L929sA and HaCat reporter cells which were stably transfected with, respectively, p(NFκB)3-50luc or p(GRE)2-50-luc constructs. For p(GRE)2-50-luc reporter assays, cells were solvent-treated or induced with different concentrations of Dex (A), Dex-mesylate (Dex-Mes) (A), SEGRA GSK866 (C) or analogs UAMC-1158 (D), UAMC-1159 (E), UAMC-1217 (F), and UAMC-1218 (G) as indicated for a total exposure time of 6 h, whereas cells were cotreated for TNF (2,500 IU/ml) in the last 4 h for p(NFkB)3-50luc reporter assays (B–G). Corresponding lysates were assayed for luciferase activities and normalized for protein content as described in the Section “Materials and Methods.” Promoter activities are expressed as relative induction factor (± standard deviation) i.e., the ratio of expression levels recorded either at induced and non-induced conditions, with the latter taken to be 1.

[2] = tested on: IL6 mRNA; assay: qPCR of TNF-inducible IL6 in HaCat cells; assay type: cell-based; conditions: 6 h, 10, 100 or 1,000 nM, TNF 2,500 IU/ml last 4 h
Protocol: qPCR was performed using the GoTaq qPCR Master Mix (Promega) according to manufacturer’s instructions. In short, a 25 µl reaction volume mix per sample was prepared containing 12.5 µl GoTaq qPCR Master Mix, 0.4 µM forward and reverse primer, and nuclease-free water. We used the Rotor-Gene Q qPCR machine of Qiagen with following PCR program: 95°C for 2 min, 40 cycli denaturation (95°C, 15 s) and annealing/extension (60°C, 30 s), and dissociation (60–95°C). […] Each sample was run in triplicate. The median value of the triplicates were taken to calculate the deltaCt-values using GAPDH as the normalization gene.
(A) QPCR assays was performed against the GR target gene GILZ/TSC22D3 in HaCat cells treated for 6 h with different concentrations 10, 100 or 1,000 nM Dex or UAMC-1217. Bar graph plot represents the relative mRNA levels of GILZ/TSC22D3 upon Dex or UAMC-1217 treatment. (B) QPCR assays was performed against the TNF-inducible inflammatory gene interleukin-6 (IL6) in HaCat cells treated for 6 h with different concentrations 10, 100, or 1,000 nM Dex or UAMC-1217 either or not, cotreated for the last 4 h with TNF (2,500 IU/ml) as indicated in panel (B). […] Significant mean differences versus control setups panel (A) or TNF treated setup panel (B) are marked as *** (P < 0.001), **(P < 0.01), * (P < 0.05) and were determined by one-way ANOVA (Dunnetts Posttest).

[3] = tested on: GR nuclear translocation in A549 cells; assay: Immunofluorescence of nuclear GR translocation in A549 cells; assay type: cell-based, human; conditions: serum starved A549 cells, 1 µM, 30 min
Protocol: To detect endogenous GR in A549 cells, cells were grown in serum free media for 24 h followed by treatment with 1 µM of specific GR ligands. After 30 min of treatment, cells on the cover glass were fixed in 4% formaldehyde in phosphate-buffered saline (PBS), permeabilized with 0.3% Triton X-100–PBS, and then blocked in 5% milk, 10% FCS, 0.3% bovine serum albumin, and 0.3% Triton X-100 in PBS for 30 min at room temperature. Primary antibodies against anti GR-antibody (SantaCruz Biotechnology) were used at a dilution of 1:200. Nuclei were stained by DAPI and samples were analyzed using a confocal Leica LSM410 microscope. To quantify nuclear translocation of GR in a standardized manner, multichannel fluorescence images were analyzed using a script for FIJI image analysis freeware (http://fiji.sc) that is essentially based on a pipeline described before (CellBlocks.ijm) ([39]), and is available upon request. In brief, the analysis first segments nuclei in the Hoechst/DAPI channel and then uses the nuclear mask to define perinuclear cytoplasmic regions of interest (ROIs). Nuclei are detected after local contrast enhancement and Gaussian smoothing to, respectively, cover for spatial illumination heterogeneity and noise. After automatic thresholding (Isodata algorithm), touching nuclei are separated using a conditional watershed algorithm ([40]). Next, cytoplasmic ROIs are determined as concentric bands around the nuclei by Voronoi-restrained region growing ([41]). Finally, the average intensity of the GR channel is measured in both the nuclear and cytoplasmic ROIs and the nuclear-to cytoplasm signal intensity ratio (N/C Ratio) is calculated per cell (Figure S1 in Supplementary Material) ([42]).
Figure 6 Selective glucocorticoid receptor agonist GSK866 analogs UAMC-1217, UAMC-1218, but not UAMC-1158 and UAMC-1159 trigger nuclear glucocorticoid receptor (GR) translocation. (A) Serum starved A549 cells were left solvent treated or treated for 30 min with 1 µM Dex, Dex-mesylate (Dex-Mes), GSK866, UAMC-1158, UAMC-1159, UAMC-1217, or UAMC-1218. GR translocation was evaluated by immunofluorescence whereas nuclei were stained by DAPI dye. Magnification is at 100×. White scalebars represent […]. (B) Automated image quantification of GR translocation of three replicate immunofluorescence images of the different experimental setups.

Structure (SMILES)	inhibition at 0.01 µM [1]	TNF-induced IL6 gene expression [2]	nuclear GR translocation [3]	NFκB transrepression in NFκB-luc reporter ([1]; dose range)
C[C@@H]1C[C@H]2[C@@H]3CCC4=CC(=O)C=C[C@]4(C)[C@@]3(F)[C@@H](O)C[C@]2(C)[C@@]1(O)C(=O)CO [Dex, Dexamethasone, reference compound]	40 to 45%	dose-dependently reverse TNF induced IL6 gene expression	induce (partial) translocation of GR from the cytosol to the nucleus	
CCN(C[C@@](O)(CNC(=O)c1cnn(-c2ccc(F)cc2)c1N)C(F)(F)F)C(=O)c1c(Cl)ccc(NC(=O)CCl)c1Cl [UAMC-1217]	~95%	dose-dependently reverse TNF induced IL6 gene expression	induce (partial) translocation of GR from the cytosol to the nucleus	dose-dependent NFκB-transrepression effects

— article PMC5672024, “Selective Glucocorticoid Receptor Properties of GSK866 Analogs with Cysteine Reactive Warheads” (Frontiers in Immunology, 2017)
